Data on four compounds can be found in patent US11530200B2, “Compounds” (Inflazome Limited, priority 2018, dated 2022).

For one series, the target named is NLRP3 (Homo sapiens (Human), UniProt Q96P20). The series is described as follows: THP-1 cells pyroptosis assay (LPS priming, nigericin, resazurin readout). The class given is cell-based. Particulars: 1.0 μg/ml LPS, nigericin 5 μM, NLRP3 inhibitory activity. How it is done: THP-1 cells (ATCC #TIB-202) were grown in RPMI containing L-glutamine (Gibco #11835) supplemented with 1 mM sodium pyruvate (Sigma #S8636) and penicillin (100 units/ml)/streptomycin (0.1 mg/ml) (Sigma #P4333) in 10% Fetal Bovine Serum (FBS) (Sigma #F0804). The cells were routinely passaged and grown to confluency (10^6 cells/ml). On the day of the experiment, THP-1 cells were harvested and resuspended into RPMI medium (without FBS). The cells were then counted and viability (>90%) checked by Trypan blue (Sigma #T8154). Appropriate dilutions were made to give a concentration of 625,000 cells/ml. To this diluted cell solution was added LPS (Sigma #L4524) to give a 1 μg/ml Final Assay Concentration (FAC). 40 μl of the final preparation was aliquoted into each well of a 96-well plate. The plate thus prepared was used for compound screening. The following method step-by-step assay was followed for compound screening. • 1. Seed THP-1 cells (25,000 cells/well) containing 1.0 μg/ml LPS in 40 μl of RPMI medium (without FBS) in 96-well, black walled, clear bottom cell culture plates coated with poly-D-lysine (VWR #734-0317) • 2. Add […] compound (8 points half-log dilution, with […] top dose) or vehicle (DMSO 0.1% FAC) to the appropriate wells • 3. Incubate for 3 hrs at 37° C., 5% CO2 • 4. Add 5 μl nigericin (Sigma #N7143) (FAC 5 μM) to all wells • 5. Incubate for 1 hr at 37° C., 5% CO2 • 6. At the end of the incubation period, spin plates at 300×g for 3 mins and remove supernatant • 7. Then add 50 μl of resazurin (Sigma #R7017) (FAC 100 μM resazurin in RPMI medium without FBS) and incubate plates for a further 1-2 hrs at 37° C. and 5% CO2 • 8. Plates were read in an Envision reader at Ex 560 nm and Em 590 nm • 9. IC50 data is fitted to a non-linear regression equation (log inhibitor vs response-variable slope 4-parameters) The results of the pyroptosis assay are summarised in Table 1 below as THP IC50.
NLRP3, sequence (Q96P20 whole entry): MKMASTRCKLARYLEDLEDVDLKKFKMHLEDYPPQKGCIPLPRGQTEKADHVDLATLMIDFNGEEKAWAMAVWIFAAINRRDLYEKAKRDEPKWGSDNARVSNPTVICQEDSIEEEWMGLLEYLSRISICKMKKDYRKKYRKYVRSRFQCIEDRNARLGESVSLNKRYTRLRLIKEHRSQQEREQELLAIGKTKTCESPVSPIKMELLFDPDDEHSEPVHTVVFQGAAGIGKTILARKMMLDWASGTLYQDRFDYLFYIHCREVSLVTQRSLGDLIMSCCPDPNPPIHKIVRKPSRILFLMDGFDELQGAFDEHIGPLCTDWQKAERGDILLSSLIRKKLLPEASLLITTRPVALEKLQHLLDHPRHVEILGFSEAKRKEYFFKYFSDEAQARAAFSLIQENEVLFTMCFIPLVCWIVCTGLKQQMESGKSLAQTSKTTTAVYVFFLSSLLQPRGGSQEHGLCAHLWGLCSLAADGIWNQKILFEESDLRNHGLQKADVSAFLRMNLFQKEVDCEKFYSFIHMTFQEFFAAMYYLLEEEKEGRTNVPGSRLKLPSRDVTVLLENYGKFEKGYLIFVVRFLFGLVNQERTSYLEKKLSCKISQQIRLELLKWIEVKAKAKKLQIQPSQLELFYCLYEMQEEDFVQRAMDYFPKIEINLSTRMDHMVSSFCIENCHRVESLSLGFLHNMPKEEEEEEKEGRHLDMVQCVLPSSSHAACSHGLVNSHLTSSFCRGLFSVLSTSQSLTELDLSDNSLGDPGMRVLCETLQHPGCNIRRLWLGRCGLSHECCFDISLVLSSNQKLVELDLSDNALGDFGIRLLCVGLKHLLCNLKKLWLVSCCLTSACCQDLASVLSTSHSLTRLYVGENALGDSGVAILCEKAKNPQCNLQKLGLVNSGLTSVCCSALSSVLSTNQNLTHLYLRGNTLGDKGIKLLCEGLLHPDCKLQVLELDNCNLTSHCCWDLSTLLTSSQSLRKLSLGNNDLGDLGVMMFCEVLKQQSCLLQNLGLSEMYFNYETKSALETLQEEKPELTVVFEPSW

The nature of series [1]: PK protocol, intravenous administration in rats. The class given is in vivo. As to conditions: rat, plasma, male Sprague Dawley rats, 1 mg/kg; for Vd: read-out: Vdss. How it is done:
Pharmacokinetic parameters were determined in male Sprague Dawley rats (Vital River Laboratory Animal Technology Co Ltd, Beijing, China, 7-9 weeks old). Animals were group housed during the study and maintained under a 12 h light/dark cycle. For intravenous administration, compounds were formulated as a solution in DMSO:PBS [10:90] in 2 mL/kg dosing volume and administered via tail vein. Serial blood samples (about 200 μL) were taken from each animal at each of 8 time-points post dose (0.083, 0.25, 0.5, 1, 2, 4, 8 and 24 h). Samples were held on ice for no longer than 30 minutes before centrifugation (5,696 rpm (3,000 g) for 15 minutes) for plasma generation. Plasma was frozen on dry ice prior to bioanalysis. PK parameters were generated from LC-MS/MS data using Phoenix WinNonlin 6.3 software.

Molecules are shown by their SMILES. Counter-ions that a name gives are not always drawn.

The compound `CC(C)c1cc(F)cc(C(C)C)c1CC(=O)NS(=O)(=O)c1cnn(C2CC2)c1` [Example 24, N-((1-Cyclopropyl-1H-pyrazol-4-yl)sulfonyl)-2-(4-fluoro-2,6-diisopropylphenyl)acetamide] returned an IC50 against NLRP3 of 1000 to 5000 nM. In series [1], the AUC amounted to 1270 ng·h/mL, the clearance came to 13.1 mL/min/kg, the half-life was 2.6 h and the Vd amounted to 1.94 L/kg.
In the same order, the values of `COc1cc(-c2cc(F)cc(C(C)C)c2CC(=O)NS(=O)(=O)c2ncn(C3CC3)n2)ccn1` [Example 21, N-((1-Cyclopropyl-1H-1,2,4-triazol-3-yl)sulfonyl)-2-(4-fluoro-2-isopropyl-6-(2-methoxypyridin-4-yl)phenyl)acetamide] are 1000 to 5000 nM, 827 ng·h/mL, 20.2 mL/min/kg, 9.3 h and 6.15 L/kg.
For `CC(C)c1cc(F)cc(-c2cccnc2)c1CC(=O)NS(=O)(=O)c1cnn(C2CC2)c1` [Example 11, N-((1-Cyclopropyl-1H-pyrazol-4-yl)sulfonyl)-2-(4-fluoro-2-isopropyl-6-(pyridin-3-yl)phenyl)acetamide], in that order: 1000 to 5000 nM, 1560 ng·h/mL, 10.7 mL/min/kg, 4.4 h and 0.95 L/kg.
The compound `COc1cc(-c2cc(F)cc(C(C)C)c2CC(=O)NS(=O)(=O)c2cnn(C3CC3)c2)ccn1` [Example 18, N-((1-Cyclopropyl-1H-pyrazol-4-yl)sulfonyl)-2-(4-fluoro-2-isopropyl-6-(2-methoxypyridin-4-yl)phenyl)acetamide, potassium salt] showed an IC50 on NLRP3 of at most 1000 nM. In series [1], the AUC is 1550 ng·h/mL, the clearance is 15.4 mL/min/kg, the half-life was 16.4 h and the Vd is 6.52 L/kg.

The term IC50 denotes the concentration that gives 50% inhibition. The low end stands for inhibition by little substance, the high end for a need for much substance. The AUC is the area under the concentration-time curve, a measure of exposure. In general, clearance refers to the volume of plasma or blood freed of the substance per unit of time. As a reminder, the half-life is the time in which the quantity being followed falls by half. Low values mean fast loss, high ones slow loss.
